In one experiment the test system is dengue virus type 2. Description: Functional immunofluorescence assay to measure dose dependent changes in antiviral-drug inhibitory efficacy against Dengue virus type 2 Thailand/16681/84 in Vero E6/TMPRSS2 cells (cotreated with P-gp inhibitor, Elacridar). Cells are treated with antiviral candidates that are serially diluted, following infection, cells are fixed. EC50 is reported via analysis of immunofluorescence staining. The assay has been performed by Icahn School of Medicine at Mount Sinai. The experiment is classed as organism-based, Chlorocebus sabaeus, VeroE6/TMPRSS2. The conditions noted are these: for EC90: P-gp concentration 2 uM, P-gp inhibitor Elacidar.

A further experiment has as its system Zika virus. Description: EC50 is reported via analysis of immunofluorescence staining. The assay has been performed by Icahn School of Medicine at Mount Sinai. The experiment is classed as functional, organism-based, Chlorocebus sabaeus, VeroE6/TMPRSS2. The conditions noted are these: for EC90: P-gp concentration 2 uM, P-gp inhibitor Elacidar.

Structures are written as SMILES. Several values for one entry are separate records, joined by “and”; a condition that tells them apart may be missing. Identical values can stand only once.

Usually EC50 stands for the concentration giving half of the maximal effect. As usually defined, the EC90 is the concentration at which the effect reaches the 90% level.

On to `NCc1cccc(NC(=O)c2cc(Cl)cc3c2CCC3)c1`, for which the EC50 in the experiment with dengue virus type 2 (Dengue virus, VeroE6/TMPRSS2) is over 10 µM; in the experiment with dengue virus type 2 (veroe6/tmprss2) it was over 16.7 µM; in the experiment with Zika virus (Zika virus, VeroE6/TMPRSS2) it was over 16.7 µM. Besides, the EC90 was over 16.7 µM in the experiment with dengue virus type 2 (Dengue virus, VeroE6/TMPRSS2, Maximum measured 223.993 %, Minimum measured 74.273 %); over 10 µM in the experiment on dengue virus type 2 (Dengue virus, VeroE6/TMPRSS2, Baseline response 0 %, Hill slope 0.162, Maximum measured 165.889 %, Maximum response 100 %, Minimum measured 52.995 %, R squared 0.068); over 16.7 µM with Zika virus (Zika virus, VeroE6/TMPRSS2, Maximum measured 83.197 %, Minimum measured 51.618 %).
`CNC(=O)[C@H](Nc1cc(Cl)cc(NC(=O)OCc2ccccc2)c1)c1cccc(-c2nn[nH]n2)c1`: the EC50 in the experiment on dengue virus type 2 (Dengue virus, VeroE6/TMPRSS2) was over 50 µM; in the experiment with Zika virus (Zika virus, VeroE6/TMPRSS2), over 50 µM. Moreover, the EC90 with dengue virus type 2 (Dengue virus, VeroE6/TMPRSS2, Baseline response 0 %, Hill slope -0.094, Maximum measured 132.889 %, Maximum response 100 %, Minimum measured 51.11 %, R squared 0.041) is over 50 µM; with Zika virus (Zika virus, VeroE6/TMPRSS2, Maximum measured 214.272 %, Minimum measured 122.906 %), over 50 µM.
For `CCCC(=O)Nc1cc(Cl)cc(C(=O)Nc2cccc(CN)c2)c1`, the EC50 was over 50 µM with dengue virus type 2 (Dengue virus, VeroE6/TMPRSS2) and over 16.7 µM with Zika virus (Zika virus, VeroE6/TMPRSS2). For the same molecule, the EC90 with dengue virus type 2 (Dengue virus, VeroE6/TMPRSS2, Maximum measured 163.615 %, Minimum measured 116.069 %) is over 50 µM; in the experiment on Zika virus (Zika virus, VeroE6/TMPRSS2, Baseline response 0 %, Hill slope -0.382, Maximum measured 108.39 %, Maximum response 100 %, Minimum measured 82.052 %, R squared 0.052), over 16.7 µM.
On to `Cc1ccc2cc(Cl)cc(C(=O)Nc3ccc4c(c3)CNC4)c2n1`, for which the EC50 is over 5.56 µM in the experiment on dengue virus type 2 (Dengue virus, VeroE6/TMPRSS2) and over 16.7 µM in the experiment with Zika virus (Zika virus, VeroE6/TMPRSS2). The EC90 was over 5.56 µM with dengue virus type 2 (Dengue virus, VeroE6/TMPRSS2, Maximum measured 235.971 %, Minimum measured 154.17 %) and over 16.7 µM in the experiment on Zika virus (Zika virus, VeroE6/TMPRSS2, Maximum measured 117.23 %, Minimum measured 34.966 %).
As for `N#C[C@H](Nc1cccc(-c2nn[nH]n2)c1)c1cc(Cl)cc(NC(=O)OCc2ccccc2)c1`, the EC50 in the experiment on dengue virus type 2 (Dengue virus, VeroE6/TMPRSS2) was over 50 µM; in the experiment on Zika virus (Zika virus, VeroE6/TMPRSS2) it was over 50 µM. In addition, the EC90 in the experiment on dengue virus type 2 (Dengue virus, VeroE6/TMPRSS2, Baseline response 0 %, Hill slope -0.37, Maximum measured 135.235 %, Maximum response 100 %, Minimum measured 60.402 %, R squared 0.119) was over 50 µM; in the experiment with Zika virus (Zika virus, VeroE6/TMPRSS2, Maximum measured 138.49 %, Minimum measured 54.48 %), over 50 µM.
On to `O=C(Nc1ccc2c(c1)CNC2)c1cc(Cl)ccc1SC1CCCC1`, for which the EC50 was over 16.7 µM with dengue virus type 2 (Dengue virus, VeroE6/TMPRSS2) and over 16.7 µM with Zika virus (Zika virus, VeroE6/TMPRSS2). Further, the EC90 with dengue virus type 2 (Dengue virus, VeroE6/TMPRSS2, Maximum measured 58.655 %, Minimum measured 40.644 %) was over 16.7 µM; in the experiment on Zika virus (Zika virus, VeroE6/TMPRSS2, Maximum measured 121.888 %, Minimum measured 81.617 %), over 16.7 µM.
Turning to `N#Cc1cc(Cl)cc([C@H](C#N)Nc2ccc3c(c2)CNC3)c1`, the EC50 in the experiment with dengue virus type 2 (Dengue virus, VeroE6/TMPRSS2) was over 16.7 µM; with Zika virus (Zika virus, VeroE6/TMPRSS2), over 50 µM. The EC90 is over 16.7 µM in the experiment on dengue virus type 2 (Dengue virus, VeroE6/TMPRSS2, Maximum measured 121.447 %, Minimum measured 87.688 %) and over 50 µM in the experiment on Zika virus (Zika virus, VeroE6/TMPRSS2, Baseline response 0 %, Hill slope -0.289, Maximum measured 115.578 %, Maximum response 100 %, Minimum measured 78.039 %, R squared 0.102).
Regarding `Cc1ccc(-c2nnn[nH]2)cc1NC(=O)c1cc(Cl)cc(NC(=O)OCc2ccccc2)c1`, the EC50 is 40.5 µM with dengue virus type 2 (Dengue virus, VeroE6/TMPRSS2) and over 16.7 µM with Zika virus (Zika virus, VeroE6/TMPRSS2). Further, the EC90 with dengue virus type 2 (Dengue virus, VeroE6/TMPRSS2, Baseline response 0 %, Hill slope -16.355, Maximum measured 369.361 %, Maximum response 277.036 %, Minimum measured 8.558 %, R squared 0.765) is 46.3 µM; in the experiment with Zika virus (Zika virus, VeroE6/TMPRSS2, Maximum measured 182.406 %, Minimum measured 123.883 %), over 16.7 µM.
Turning to `O=C(O)c1cc(Cl)ccc1S(=O)(=O)NC1CCN(c2nc(C3CC3)cc(C(F)(F)F)n2)CC1`, the EC90 in the experiment with dengue virus type 2 (Dengue virus, VeroE6/TMPRSS2, Maximum measured 136.17 %, Minimum measured 94.607 %) was over 16.7 µM; in the experiment with dengue virus type 2 (Dengue virus, VeroE6/TMPRSS2, Baseline response 0 %, Hill slope -0.112, Maximum measured 104.285 %, Maximum response 100 %, Minimum measured 47.241 %, R squared 0.035), over 3.33 µM; with Zika virus (Zika virus, VeroE6/TMPRSS2, Maximum measured 121.005 %, Minimum measured 84.589 %), over 16.7 µM; in the experiment with Zika virus (Zika virus, VeroE6/TMPRSS2, Baseline response 0 %, Hill slope -0.273, Maximum measured 117.096 %, Maximum response 100 %, Minimum measured 55.547 %, R squared 0.133), over 3.33 µM. For the same molecule, the EC50 with dengue virus type 2 (veroe6/tmprss2) and in the experiment with Zika virus (veroe6/tmprss2) was over 16.7 µM in each case.
In the case of `C[C@@H](N)c1cccc(NC(=O)[C@H]2[C@H]3CCCCC[C@H]3[C@H]2NC(=O)OCc2ccccc2)c1`, the concentration giving a half-maximal response (EC50) with dengue virus type 2 (Dengue virus, VeroE6/TMPRSS2) is over 5.56 µM; in the experiment with Zika virus (Zika virus, VeroE6/TMPRSS2), over 5.56 µM. Moreover, the EC90 was over 5.56 µM in the experiment with dengue virus type 2 (Dengue virus, VeroE6/TMPRSS2, Baseline response 0 %, Hill slope -0.267, Maximum measured 104.495 %, Maximum response 100 %, Minimum measured 46.505 %, R squared 0.299) and over 5.56 µM in the experiment with Zika virus (Zika virus, VeroE6/TMPRSS2, Maximum measured 138.527 %, Minimum measured 84.272 %).
Regarding `O=C(Nc1cc(Cl)cc(C(=O)Nc2ccc3c(c2)CNCCO3)c1)OCc1ccccc1`, the EC50 in the experiment on dengue virus type 2 (Dengue virus, VeroE6/TMPRSS2) came out at 0.669 µM; with Zika virus (Zika virus, VeroE6/TMPRSS2), 5.26 µM. Besides, the EC90 in the experiment on dengue virus type 2 (Dengue virus, VeroE6/TMPRSS2, Baseline response 0 %, Hill slope -1.036, Maximum measured 111.022 %, Maximum response 100 %, Minimum measured 5.282 %, R squared 0.817) was over 5.56 µM; in the experiment on Zika virus (Zika virus, VeroE6/TMPRSS2, Baseline response 0 %, Hill slope -16.118, Maximum measured 155.613 %, Maximum response 100 %, Minimum measured 29.546 %, R squared 0.374), over 5.56 µM.
As for `NCc1cccc(NC(=O)c2cc(Cl)cc(NC(=O)OCc3ccccc3)c2)c1`, the EC90 in the experiment with dengue virus type 2 (Baseline response 0 %, Hill slope 0.299, Maximum measured 124.416 %, Maximum response 100 %, Minimum measured 54.583 %, R squared 0.188) is over 10 µM; in the experiment with dengue virus type 2 (Baseline response 0 %, Hill slope -0.071, Maximum measured 76.87 %, Maximum response 100 %, Minimum measured 49.245 %, R squared 0.036) it was over 1.85 µM; with dengue virus type 2 (Baseline response 0 %, Hill slope -0.258, Maximum measured 121.337 %, Maximum response 100 %, Minimum measured 68.392 %, R squared 0.156), over 5.56 µM; in the experiment on Zika virus (Baseline response 0 %, Hill slope -0.215, Maximum measured 128.419 %, Maximum response 100 %, Minimum measured 50.213 %, R squared 0.105), over 3.33 µM; in the experiment on Zika virus (Baseline response 0 %, Hill slope -0.764, Maximum measured 71.895 %, Maximum response 50 %, Minimum measured 1.714 %, R squared 0.465) it was over 16.7 µM; in the experiment with Zika virus (Baseline response 0 %, Hill slope -1.05, Maximum measured 125.373 %, Maximum response 100 %, Minimum measured 37.992 %, R squared 0.488) it was over 5.56 µM. Moreover, the concentration for a half-maximal effect (EC50) in the experiment with dengue virus type 2 (veroe6/tmprss2) is over 10 µM; in the experiment with Zika virus (veroe6/tmprss2) it was > 3.33 µM and 2.02 µM and 1.2 µM.
Take `Cc1ccc(S(=O)(=O)CNC(=O)[C@H](Nc2ccc3c(c2)CNC3)c2cc(Cl)cc3[nH]ncc23)cc1`: the EC50 is over 50 µM in the experiment on dengue virus type 2 (Dengue virus, VeroE6/TMPRSS2) and over 5.56 µM in the experiment with Zika virus (Zika virus, VeroE6/TMPRSS2). Further, the EC90 in the experiment on dengue virus type 2 (Dengue virus, VeroE6/TMPRSS2, Baseline response 0 %, Hill slope 0.271, Maximum measured 147.697 %, Maximum response 100 %, Minimum measured 56.785 %, R squared 0.117) is over 50 µM; in the experiment with Zika virus (Zika virus, VeroE6/TMPRSS2, Baseline response 0 %, Hill slope -0.504, Maximum measured 105.322 %, Maximum response 100 %, Minimum measured 58.532 %, R squared 0.723), over 5.56 µM.
Take `O=C(Nc1cc(Cl)cc(N[C@H](C#CCO)c2ccc(-c3nn[nH]n3)cc2)c1)OCc1ccccc1`: the EC50 was over 50 µM with dengue virus type 2 (Dengue virus, VeroE6/TMPRSS2) and over 16.7 µM with Zika virus (Zika virus, VeroE6/TMPRSS2). Further, the EC90 was over 50 µM in the experiment on dengue virus type 2 (Dengue virus, VeroE6/TMPRSS2, Baseline response 0 %, Hill slope -0.373, Maximum measured 106.055 %, Maximum response 100 %, Minimum measured 56.8 %, R squared 0.212) and over 16.7 µM in the experiment with Zika virus (Zika virus, VeroE6/TMPRSS2, Maximum measured 78.226 %, Minimum measured 29.543 %).
In the case of `CCOC(=O)Nc1cc(Cl)cc(C(=O)Nc2cccc(CN)c2)c1`, the 50% effective concentration (EC50) is over 16.7 µM with dengue virus type 2 (Dengue virus, VeroE6/TMPRSS2) and over 50 µM in the experiment on Zika virus (Zika virus, VeroE6/TMPRSS2). Further, the EC90 in the experiment with dengue virus type 2 (Dengue virus, VeroE6/TMPRSS2, Maximum measured 179.291 %, Minimum measured 97.679 %) was over 16.7 µM; in the experiment with Zika virus (Zika virus, VeroE6/TMPRSS2, Maximum measured 144.074 %, Minimum measured 100.96 %), over 50 µM.
Consider `CCOc1cccc(-c2ccc(S(=O)(=O)Nc3ccc(Cl)cc3C(=O)O)cc2)c1`, for which the EC90 with dengue virus type 2 (Dengue virus, VeroE6/TMPRSS2, Maximum measured 86.49 %, Minimum measured 33.39 %) was over 3.33 µM; in the experiment on dengue virus type 2 (Dengue virus, VeroE6/TMPRSS2, Maximum measured 135.635 %, Minimum measured 86.345 %), over 16.7 µM; in the experiment with Zika virus (Baseline response 0 %, Hill slope -0.264, Maximum measured 100.253 %, Maximum response 100 %, Minimum measured 37.313 %, R squared 0.296), over 16.7 µM; in the experiment with Zika virus (Zika virus, VeroE6/TMPRSS2, Baseline response 0 %, Hill slope -0.107, Maximum measured 149.039 %, Maximum response 100 %, Minimum measured 60.172 %, R squared 0.014), over 10 µM. The EC50 in the experiment on dengue virus type 2 (veroe6/tmprss2) is over 16.7 µM; in the experiment with Zika virus (Zika virus, VeroE6/TMPRSS2), over 10 µM; in the experiment with Zika virus (veroe6/tmprss2), 9.76 µM.

Values taken from ChEMBL document CHEMBL5661943, “ASAP - In vitro antiviral effect” (2024).
